What was measured:
Type in all cases: cell-based, human
[1] = system: sporadic PD patient fibroblasts; assay: Cellular ATP levels in sporadic PD patient fibroblasts, full ATP assay; settings: Homo sapiens, Fibroblast, 24 h, 3 sporadic PD patient fibroblasts
[2] = system: iNeurons from sPD patients; assay: Mitochondrial reactive oxygen species (ROS) in iNeurons from sPD patients; settings: sPD patient iNeurons treated; untreated sPD patients 115
Method: (§1) The fibroblasts lines and iNPC lines have previously been characterised and published in Carling et al, 2020.
(§2) Briefly, iNPCs are plated in a 6-well plate and cultured for 2 days in DMEM/F-12 medium with Glutamax™ supplemented with 1% NEAA, 2% B27 (Gibco) and 2.5 μM of DAPT. On day 3, DAPT is removed and the medium is supplemented with 1 μM smoothened agonist (SAG) and FGF8 (75 ng/ml) for additional 10 days. Neurons are replated at this stage. Subsequently SAG and FGF8 are withdrawn and replaced with BDNF (30 ng/ml), GDNF (30 ng/ml), TGF-b3 ([…]) and dcAMP (2 mM, Sigma) for 15 days, as previously described Schwartzentruber et al, 2020 and Carling et al, 2020. Dopaminergic neurons were treated with compounds at concentrations of 0.1 nM, 1 nM, 3 nM, 10 nM, 30 nM and 100 nM dosing every 3 days for the last 12 days of differentiation.
(§3) iNeurons were treated every 3 days for the last 12 days of the differentiation protocol. Cells are plated in 96 well plates; for live imaging cells are incubated for one hour at 37° C. with 80 nM tetramethlyrhodamine (TMRM), 1 μM LysoTracker® Green (Invitrogen) and Hoechst Stain solution (Sigma) at 1 μM before imaging using Opera Phenix™. Cellular ATP measurements are undertaken using ATPlite kit (Perkin Elmer) as per manufacturer's instructions. Mitochondrial reactive oxygen species generation was assessed using mitochondrial NpFR2 (probe; a kind gift from Dr Liz New, University of Sydney, Australia) at 20 μM and Hoechst stain solution at 1 μM for 30 mins at 37° C., then the dyes are removed and cells images using Opera Phenix™. Images generated from the live imaging experiments were analysed using Harmony® (Perkin Elmer software). We developed protocols in order to segment nucleus, cell boundary and processes, mitochondria, lysosomes, autophagosomes. We only analysed the z projection images collected from the z stacks.

[3] = system: iNeurons from sPD patients; assay: Neuronal morphology (elongation) in iNeurons from sPD patients
Method: as §1, §2
(§4) Cells are plated into 96 well plates and fixed using 4% paraformaldehyde for 30 minutes. After PBS washes cells are permeabilised using 0.1% Triton™ X-100 for 10 minutes and blocked using 5% goat serum for 1 hour. Cells are incubated with primary antibodies βIII tubulin (Millipore); activated caspase 3 (Cell Signaling); at 4° C. for 16 hours. Cells are washed using PBS-Tween® and incubated with Alexa Fluor™-conjugated secondary antibodies 488 and 568 (Invitrogen) and Hoescht (Sigma) 1 μM prior to imaging. Imaging was performed using the Opera Phenix™ high content imaging system (Perkin Elmer).
iNeurons were treated every 3 days for the last 12 days of the differentiation protocol. […] Mitochondrial reactive oxygen species generation was assessed using mitochondrial NpFR2 (probe; a kind gift from Dr Liz New, University of Sydney, Australia) at 20 μM and Hoechst stain solution at 1 μM for 30 mins at 37° C., then the dyes are removed and cells images using Opera Phenix™. Images generated from the live imaging experiments were analysed using Harmony® (Perkin Elmer software). […] We only analysed the z projection images collected from the z stacks.

[4] = system: iNeurons from sPD patients; assay: Cellular ATP in iNeurons (dopaminergic neurons derived from sPD patients)
Method: as §1, §2, §3

[5] = system: iNeurons from sPD patients; assay: Activated caspase 3 levels (apoptosis) in iNeurons from sPD patients
Method: as §1, §2, §4

[6] = sPD derived dopaminergic neurons

EC50 ([4]; Homo sapiens, Neuron, sPD patient iNeurons, dosing every 3 days for last 12 days of differentiation): 5 nM
Compound: C[C@H](CCCC(=O)O)[C@H]1CC[C@H]2[C@@H]3[C@@H](O)C[C@@H]4CNCC[C@]4(C)[C@H]3CC[C@]12C.Cl [Compound 28b, 3-Aza-7β-hydroxy-25-homo-5β-cholan-25-oic acid hydrochloride]
EC50 ([1]; 8-point range 0.06 nM-300 nM): 32.9 nM
Emax at 0.3 µM ([1]; max response with highest dose of compound (300 nM), read-out: ATP % of vehicle, top %): 138%
activity at 60 pM ([1]; max response with lowest dose of compound (0.06 nM), read-out: ATP % of vehicle, bottom %): 94.6%
ROS normalisation (% of controls) [2]: 109 % of controls
neuronal morphology, in words [3, 6]: improving neuronal morphology
Neuronal morphology (elongation; % controls) ([3]; sPD patient iNeurons treated, untreated sPD patients 48): 68 % controls
effect on mitochondrial parameters in sPD derived dopaminergic neurons ([4]; both mitochondrial parameters (Table 3)): provides a protective effect on both mitochondrial parameters
ATP normalisation (% of controls) ([4]; sPD patient iNeurons treated, untreated sPD patients 50): 94.3 % of controls
apoptosis levels (as measured by activated caspase 3 levels), in words [5, 6]: reducing apoptosis levels
Activated caspase 3 levels ([5]; sPD patient iNeurons treated, untreated sPD patients 162): 138 % of level in iNeurons from Controls
